# From patent US10238677B2, “Treatment of filarial diseases” (AbbVie Inc., priority 2015, dated 2019)
# “And” between values parts separate entries of the source, which are not always exact repeats. Identical values can stand only once.
# What was measured:
# [1] = system: Wolbachia in Litomosoides sigmodontis larvae; experiment: Larval Litomosoides sigmodontis mouse model, Wolbachia ftsZ qPCR; assay type: in vivo, BALB/c mice; details: vs vehicle control
# Procedure: In this mouse model of filariasis (Hoerauf A, et al. (1999) Journal of Clinical Investigation 103(1):11-18), BALB/c mice (6-8 week old) were infected via natural larvae transmission, through the bite of infected tropical mites (Ornithonyssus bacoti), and treatment started on the day following infection. Anti-Wolbachia efficacy was measured by quantitative PCR analysis, using genomic DNA extracted from larvae, of the Wolbachia ftsZ gene, and expressed as a reduction in Wolbachia load in comparison to the vehicle control group. […] Thus, tylosin A effectively cleared Wolbachia from filarial larvae (Litomosoides sigmodontis) in a mouse model of filariasis when delivered parenterally (intraperitoneally), to a similar extent to doxycycline, with a shorter dosing regimen.
# [2] = system: Wolbachia pipientis (Wolbachia strain wAlbB) in C6/36 Aedes albopictus cell line; experiment: In vitro anti-Wolbachia cell-based screening assay; details: Table 1A, anti-Wolbachia activity, 7 days incubation
# Procedure: A C6/36 Aedes albopictus cell line infected with Wolbachia pipientis (Wolbachia strain wAlbB) derived from Aa23 A. albopictus cell line (O'Neill et al., 1997; Insect Mol Biol; Turner et al., (2006) J. Immunol. 7:1240-1249) was used to screen compounds. Cells were cultured in Leibovitz's L15 +L-glutamine supplemented with heat-inactivated Foetal Calf Serum (HI-FCS), non-essential amino acids and tryptose phosphate broth. Culture medium was filter-sterilized through a 0.2 μm filter and stored at 4° C. Compounds were provided as 10 mM stocks in DMSO, diluted to 50 μM working stock to give final concentration of 5 μM on the test plate. Concentrated stocks were frozen at −20° C.
# Prior to use in the screening assay, cell cultures were sub-passaged (6 days prior) to provide ˜90% confluent cells on Day 0 of screening assay. On Day 0 (assay set-up), the medium was removed from the stock culture flask and replaced with fresh medium. The cells were detached by scraping and cell density was calculated using an automated cell counter. The cells were then diluted at working density and aliquoted at 90 μl to each well of a Cell Carrier 384 well plate (Perkin Elmer). Cell plates were incubated at 26° C.
# Control solution (DMSO-medium) was dispensed at 10 μl per well for “untreated” wells. Test solution (Drug-DMSO) was also dispensed at 10 μl (from working plate) per well for “treated” wells. The plates were incubated at 26° C., inside plastic wallet in incubator, for 7 days.
# On Day 7, 25 μl of staining medium/dye (SYTO 11, Life Technologies) was added to each sample well and allowed to stain for 15 minutes in the dark. All the medium was removed from each sample well without disturbing the cells and replaced with 100 μl of fresh medium. Plates were imaged on the Operetta High Content Imaging system (Perkin Elmer) and analyzed using texture analysis through Harmony software (Perkin Elmer). The cell-based screen and analysis are described in detail in Clare et al. (2014) J Biomol Screen.
# [3] = system: Wolbachia in adult Brugia malayi; experiment: Adult Brugia malayi mouse model, Wolbachia wsp qPCR; assay type: in vivo, BALB/c CCR3−/− mice
# From the text: In an adult Brugia malayi mouse model treatment groups (BALB/c CCR3−/−mice, 6-8 week old) received compounds by oral delivery for 7-28 days beginning at 6-10 weeks post-infection intraperitoneal with Brugia malayi third-stage larvae. Following treatment, at 12 weeks post-infection, adult worms and released microfilariae were recovered from the peritoneal cavity, counted and staged for sex. Genomic DNA was extracted from individual adult worms (10/group) and quantification of the Wolbachia surface protein (wBm-wsp) performed by quantitative PCR.
# Treatment dose (mg/kg/day) shown in parentheses and duration stated in days (d). MIN (minocycline), bid (twice daily), qd (once daily). Data in Table 4 are expressed as a reduction in Wolbachia load in comparison to the vehicle control group.
# Treatment dose (mg/kg/day) shown in parentheses and duration stated in days (d). MIN (minocycline), bid (twice daily), qd (once daily).
# [4] = system: Wolbachia in Brugia malayi larvae; experiment: Larval Brugia malayi mouse model, Wolbachia wsp qPCR; assay type: in vivo, BALB/c IL4Rα−/− mice; details: vs median vehicle control
# From the text: […] At 14 days post-infection, larvae were recovered from the peritoneal cavity, counted, and length measured. Genomic DNA was extracted from individual worms (10/group) and quantification of the Wolbachia surface protein (wBm-wsp) gene copy numbers performed by quantitative PCR.
# Treatment dose (mg/kg) shown in parentheses and duration stated in days (d). Abbreviations: DOX (doxycycline), bid (twice daily), qd (once daily), PO (oral), […]. Data in Table 2 are expressed as a reduction in Wolbachia load in comparison to the vehicle control group.
# […] […] Treatment dose (mg/kg) shown in parentheses and duration stated in days (d). Abbreviations: DOX (doxycycline), qd (once daily).
# [5] = system: Wolbachia in adult male Onchocerca ochengi; experiment: Adult Onchocerca ochengi mouse model, Wolbachia:gst qPCR; assay type: in vivo, CB.17 SCID (BALB/c congenic) mice; details: Table 8; 25 mg/kg bid oral 28 d; vs median vehicle control
# Procedure: In this model, adult male Onchocerca ochengi (closest relative species to the human parasite causing river blindness, Onchocerca volvulus) are derived from cattle natural hosts and surgically implanted into the peritoneal cavity of CB.17 SCID (BALB/c congenic) mice under anaesthesia (Halliday et al Parasit. Vectors 2014 7:472). After 3 days following surgery, mice were treated by oral gavage for periods up to 4 weeks. Mice were necropsied for worm recoveries 6 weeks after start of treatment. Genomic DNA was extracted from individual worms (n=10/group) and quantification of the Wolbachia surface protein (wBm-wsp) and Onchocerca glutathione S-transferase (Ov-gst) gene copy numbers performed by quantitative PCR. Data is expressed as a reduction in Wolbachia:gst ratios in comparison to the vehicle control group.
# Treatment dose (mg/kg/day) shown in parentheses and duration stated in days (d). DOX (doxycycline), qd (once daily) bid (twice daily).
# [6] = system: Brugia malayi microfilariae; experiment: Adult Brugia malayi jird model, motile peritoneal microfilariae load; assay type: in vivo, Mongolian jirds (Meriones unguiculatus); details: Table 7, 200 mg/kg qd oral 21 d
# Procedure: (§1) In this model of adult filarial (macrofilariae) infection, Mongolian jirds (Meriones unguiculatus) were infected intraperitoneally with Brugia malayi third-stage larvae (Ash and Riley, (1970) J Parasitol. 56(5):969-73). Infected jirds were treated at +12-20 weeks post-infection for periods up to 6 weeks. Jirds were necropsied for worm recoveries. Adult worms were staged for sex and motile released microfilariae were counted. Genomic DNA was extracted from individual worms (10/group) and quantification of the Wolbachia surface protein (wBm-wsp) and Brugia malayi glutathione S-transferase (Bm-gst) gene copy numbers performed by quantitative PCR, and expressed as a reduction in Wolbachia load in comparison to the vehicle control group.
# (§2) Treatment dose (mg/kg/day) shown in parentheses and duration stated in days (d). DOX (doxycycline), qd (once daily).
# [7] = system: Wolbachia in adult Brugia malayi; experiment: Adult Brugia malayi jird model, Wolbachia load; assay type: in vivo, Mongolian jirds (Meriones unguiculatus); details: Table 6; 200 mg/kg qd oral 21 d; vs median vehicle control
# Procedure: as §1, §2
# Loa loa microfilariae = Loa loa microfilariae ex vivo counter-screen; assay type: cell-based; details: for Motility (mean % vs baseline) / Survival (%): 64 μg/ml
# From the text: This ex vivo assay is used to assess direct Loa loa microfilaricidal effects of drug compounds. Bloodborne Loa loa microfilariae are generated from experimental infections of splenectomised baboons with the human stain of L. loa (Orihel et al, Trop Med Parasitol, 1985. 36: p.215). L. loa microfilariae were purified from venous blood samples by Percoll gradient centrifugation. Loa loa microfilariae were adjusted to a density of 0.5×10^4/ml and plated into 96-well plates in Dulbecco's Modified Eagle Medium (DMEM) containing 10% Foetal Calf Serum (FCS). Triplicate wells of Loa loa microfilariae were exposed to either ivermectin (64 μg/ml: positive control), compound 10 (0.018 and 0.18 μg/ml), compound 19 (0.11 and 1.11 μg/ml) or 0.1% DMSO vehicle control. Dose levels of compound 10 and compound 19 were matched to predictive Cmax and 10× Cmax human plasma concentrations based on PK-PD modeling. L. loa were cultured at 37° C./5% CO2 for +7 days and monitored daily with a semi-quantitative score applied to individual mf motility.
# [8] = Table 2, 50 mg/kg qd PO 14 d, 50 mg/kg
compound,measurement,setting,value
"CC[C@H]1OC(=O)C[C@@H](O)[C@H](C)[C@@H](O[C@@H]2O[C@H](C)[C@@H](O[C@H]3C[C@@](C)(O)[C@@H](O)[C@H](C)O3)[C@H](N(C)C)[C@H]2O)[C@@H](CC=O)C[C@@H](C)C(=O)/C=C/C(C)=C/[C@@H]1CO[C@@H]1O[C@H](C)[C@@H](O)[C@@H](OC)[C@H]1OC [Tylosin A, 2-((4R,5S,6S,7R,9R,11E,13E,15R,16R)-6-(((2R,3R,4R,5S,6R)-5-(((2S,4R,5S,6S)-4,5-dihydroxy-4,6-dimethyltetrahydro-2H-pyran-2-yl)oxy)-4-(dimethylamino)-3-hydroxy-6-methyltetrahydro-2H-pyran-2-yl)oxy)-16-ethyl-4-hydroxy-15-((((2R,3R,4R,5R,6R)-5-hydroxy-3,4-dimethoxy-6-methyltetrahydro-2H-pyran-2-yl)oxy)methyl)-5,9,13-trimethyl-2,10-dioxooxacyclohexadeca-11,13-dien-7-yl)acetaldehyde]",Wolbachia reduction,"[1]; 7 days treatment, oral dosing",21.9%
same,Wolbachia reduction,"[1]; 7 days treatment, parenteral (intraperitoneal) dosing",91.7%
same,EC50,"[2]; C6/36, 168 h",36 nM
same,EC50,[2],24 nM and 26 nM
same,% Wolbachia reduction,"[3]; Table 4, 50 mg/kg qd oral 14 d, vs median vehicle control",0%
same,% Wolbachia reduction,"[4]; Table 2, 50 mg/kg qd IP 14 d, 50 mg/kg",99.9%
same,% Wolbachia reduction,"[4]; Table 2, 50 mg/kg qd IP 14 d, listed as TYL A, 50 mg/kg",99.9%
same,% Wolbachia reduction,[4]; [8],50.4%
same,% Wolbachia reduction,"[4]; Table 2, 50 mg/kg qd PO 14 d, listed as TYL A, 50 mg/kg",50.4%
"CC[C@H]1OC(=O)C[C@@H](O)[C@H](C)[C@@H](O[C@@H]2O[C@H](C)[C@@H](O)[C@H](N(C)C)[C@H]2O)[C@@H](CC=O)C[C@@H](C)C(=O)/C=C/C(C)=C/[C@@H]1CO[C@@H]1O[C@H](C)[C@@H](O)[C@@H](OC)[C@H]1OC [Tylosin B, desmycosin]",EC50,[2],88 nM
C[C@H]1c2cccc(O)c2C(=O)C2=C(O)[C@]3(O)C(=O)C(C(N)=O)=C(O)[C@@H](N(C)C)[C@@H]3[C@@H](O)[C@@H]21 [doxycycline],% Wolbachia reduction,[5],99.8%
same,Wolbachia reduction,[1]; 50 mg/kg/day for 14 days,99.9%
same,% reduction in microfilariae,[6],90.5%
same,% Wolbachia reduction,[7],99.1%
same,% Wolbachia reduction,"[4]; Table 2, 50 mg/kg qd PO 7 d",88.7%
same,% Wolbachia reduction,[4]; [8],98.3%
same,% Wolbachia reduction,"[4]; Table 2, 50 mg/kg qd PO 14 d, listed as DOX, 50 mg/kg",98.3%
same,% Wolbachia reduction,"[4]; Table 3, 50 mg/kg qd oral 7 d, 50 mg/kg",77.4%
same,% Wolbachia reduction,"[4]; Table 3, 50 mg/kg qd oral 7 d, listed as DOX, 50 mg/kg",77.4%
same,% Wolbachia reduction,"[4]; Table 3, 50 mg/kg qd oral 14 d, 50 mg/kg",99.3%
same,% Wolbachia reduction,"[4]; Table 3, 50 mg/kg qd oral 14 d, listed as DOX, 50 mg/kg",99.3%
CN(C)c1ccc(O)c2c1C[C@H]1C[C@H]3[C@H](N(C)C)C(O)=C(C(N)=O)C(=O)[C@@]3(O)C(O)=C1C2=O [minocycline],% Wolbachia reduction,[5],99.7%
same,% Wolbachia reduction,"[3]; Table 4, 25 mg/kg bid oral 28 d, vs median vehicle control, 25 mg/kg",83.8%
same,% Wolbachia reduction,"[3]; Table 4, 25 mg/kg bid oral 28 d, vs median vehicle control, listed as MIN, 25 mg/kg",83.8%
same,% Wolbachia reduction,"[3]; Table 5 dose escalation study, 25 mg/kg bid oral 28 d",95.5%
ivermectin,Motility (mean % vs baseline),Loa loa microfilariae; exposure time 2 days,5.71%
same,Survival (%),Loa loa microfilariae; exposure time 2 days,100%
same,Motility (mean % vs baseline),Loa loa microfilariae; exposure time 7 days,0%
same,Survival (%),Loa loa microfilariae; exposure time 7 days,0%
same,Effect on Loa loa microfilariae motility (in words),"Loa loa microfilariae; ex vivo culture, period of 7 days",completely immotile
same,Reduction in motility,Loa loa microfilariae; in +2 days,> 90%
